Assay results taken from BindingDB's records for doi:10.1016/j.chembiol.2011.12.010 (Boston College, 2012).
pIC50: −log10 of the molar value.

Columns and labels:
Test in all cases: In Vitro Enzyme Assay
[1] = target: cGMP-inhibited 3',5'-cyclic phosphodiesterase 3B (Homo sapiens, UniProt Q13370)
[2] = target: Dual specificity calcium/calmodulin-dependent 3',5'-cyclic nucleotide phosphodiesterase 1C (Human, UniProt Q14123)
[3] = target: Cone cGMP-specific 3',5'-cyclic phosphodiesterase subunit alpha' (Homo sapiens, UniProt P51160)
[4] = target: T1, cGMP-dependent 3',5'-cyclic phosphodiesterase (Rattus norvegicus, UniProt Q01062)
T1 sequence (Q01062 whole entry): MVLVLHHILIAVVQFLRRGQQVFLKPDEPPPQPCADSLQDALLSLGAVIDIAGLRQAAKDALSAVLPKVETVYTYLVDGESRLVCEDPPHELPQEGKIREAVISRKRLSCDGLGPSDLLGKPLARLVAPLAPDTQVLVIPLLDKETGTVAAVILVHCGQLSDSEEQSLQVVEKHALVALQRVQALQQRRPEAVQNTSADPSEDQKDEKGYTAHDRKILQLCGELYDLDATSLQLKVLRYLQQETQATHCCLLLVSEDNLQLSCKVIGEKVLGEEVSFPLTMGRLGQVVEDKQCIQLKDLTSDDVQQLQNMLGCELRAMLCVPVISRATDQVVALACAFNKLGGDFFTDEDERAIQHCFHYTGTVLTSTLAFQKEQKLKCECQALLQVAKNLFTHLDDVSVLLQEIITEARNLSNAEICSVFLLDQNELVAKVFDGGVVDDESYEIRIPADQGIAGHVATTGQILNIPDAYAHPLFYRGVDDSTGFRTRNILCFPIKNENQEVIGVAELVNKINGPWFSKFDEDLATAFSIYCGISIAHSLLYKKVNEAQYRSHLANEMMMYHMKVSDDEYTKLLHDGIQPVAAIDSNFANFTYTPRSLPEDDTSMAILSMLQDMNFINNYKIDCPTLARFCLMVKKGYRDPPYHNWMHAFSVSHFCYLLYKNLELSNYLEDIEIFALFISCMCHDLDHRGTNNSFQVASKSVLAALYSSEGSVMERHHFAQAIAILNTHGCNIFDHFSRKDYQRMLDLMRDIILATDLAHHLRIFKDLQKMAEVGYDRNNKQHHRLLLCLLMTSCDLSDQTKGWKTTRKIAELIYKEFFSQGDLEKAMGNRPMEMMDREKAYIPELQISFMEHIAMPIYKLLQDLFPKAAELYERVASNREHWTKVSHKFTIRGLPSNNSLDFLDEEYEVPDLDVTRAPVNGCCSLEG

[5] = target: Dual 3',5'-cyclic-AMP and -GMP phosphodiesterase 11A (Homo sapiens, UniProt Q9HCR9)
[6] = target: High affinity cAMP-specific 3',5'-cyclic phosphodiesterase 7A (Homo sapiens, UniProt Q13946)
[7] = target: cAMP and cAMP-inhibited cGMP 3',5'-cyclic phosphodiesterase 10A (Homo sapiens, UniProt Q9Y233)
cAMP and cAMP-inhibited cGMP 3',5'-cyclic phosphodiesterase 10A, sequence (Q9Y233 whole entry): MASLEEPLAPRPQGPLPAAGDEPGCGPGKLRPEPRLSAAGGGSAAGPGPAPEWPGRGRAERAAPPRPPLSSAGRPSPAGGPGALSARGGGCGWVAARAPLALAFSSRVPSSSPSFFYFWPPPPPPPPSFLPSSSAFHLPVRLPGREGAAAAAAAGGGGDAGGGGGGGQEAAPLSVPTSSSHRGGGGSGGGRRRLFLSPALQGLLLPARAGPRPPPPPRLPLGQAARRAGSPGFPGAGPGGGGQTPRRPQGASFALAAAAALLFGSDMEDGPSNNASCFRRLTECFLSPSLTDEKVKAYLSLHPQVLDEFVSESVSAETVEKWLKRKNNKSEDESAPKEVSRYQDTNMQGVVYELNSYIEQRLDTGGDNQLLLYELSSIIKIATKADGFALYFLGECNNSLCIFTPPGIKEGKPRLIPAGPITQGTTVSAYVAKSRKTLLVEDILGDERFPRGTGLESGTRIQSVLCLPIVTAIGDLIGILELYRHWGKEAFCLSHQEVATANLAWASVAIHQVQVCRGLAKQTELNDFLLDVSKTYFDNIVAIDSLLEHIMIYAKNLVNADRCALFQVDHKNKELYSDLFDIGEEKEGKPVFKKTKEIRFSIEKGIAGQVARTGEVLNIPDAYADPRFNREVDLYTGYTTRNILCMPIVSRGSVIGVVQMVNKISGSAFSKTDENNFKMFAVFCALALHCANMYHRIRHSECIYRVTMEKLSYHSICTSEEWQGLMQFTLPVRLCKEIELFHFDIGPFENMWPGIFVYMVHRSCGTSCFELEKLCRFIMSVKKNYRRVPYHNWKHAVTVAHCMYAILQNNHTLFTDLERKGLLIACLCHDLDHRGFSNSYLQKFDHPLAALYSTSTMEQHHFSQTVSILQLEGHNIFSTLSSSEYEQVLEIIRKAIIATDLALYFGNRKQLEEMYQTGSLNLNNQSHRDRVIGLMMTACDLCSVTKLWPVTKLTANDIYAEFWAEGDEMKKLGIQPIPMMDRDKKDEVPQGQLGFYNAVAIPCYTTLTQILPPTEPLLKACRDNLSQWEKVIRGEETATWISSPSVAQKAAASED

Dual specificity calcium/calmodulin-dependent 3',5'-cyclic nucleotide phosphodiesterase 1C, sequence (Q14123 whole entry): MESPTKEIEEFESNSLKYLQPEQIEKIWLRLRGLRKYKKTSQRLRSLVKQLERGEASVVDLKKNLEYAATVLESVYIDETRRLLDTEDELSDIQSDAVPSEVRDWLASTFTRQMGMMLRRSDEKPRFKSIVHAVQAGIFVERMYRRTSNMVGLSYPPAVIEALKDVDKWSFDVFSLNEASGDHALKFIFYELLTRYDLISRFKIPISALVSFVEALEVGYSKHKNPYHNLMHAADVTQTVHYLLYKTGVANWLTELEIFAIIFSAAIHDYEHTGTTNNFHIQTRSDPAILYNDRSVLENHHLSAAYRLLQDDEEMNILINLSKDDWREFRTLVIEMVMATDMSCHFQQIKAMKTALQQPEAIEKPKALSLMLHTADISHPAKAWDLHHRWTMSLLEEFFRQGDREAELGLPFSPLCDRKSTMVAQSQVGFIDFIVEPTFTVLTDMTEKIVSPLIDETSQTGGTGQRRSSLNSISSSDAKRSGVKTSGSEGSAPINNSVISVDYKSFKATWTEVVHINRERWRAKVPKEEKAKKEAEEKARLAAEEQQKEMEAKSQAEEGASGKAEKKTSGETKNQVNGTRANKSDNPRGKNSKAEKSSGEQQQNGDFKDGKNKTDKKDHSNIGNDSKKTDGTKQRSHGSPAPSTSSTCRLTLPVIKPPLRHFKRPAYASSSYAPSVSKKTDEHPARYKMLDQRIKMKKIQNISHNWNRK
cGMP-inhibited 3',5'-cyclic phosphodiesterase 3B, sequence (Q13370 whole entry): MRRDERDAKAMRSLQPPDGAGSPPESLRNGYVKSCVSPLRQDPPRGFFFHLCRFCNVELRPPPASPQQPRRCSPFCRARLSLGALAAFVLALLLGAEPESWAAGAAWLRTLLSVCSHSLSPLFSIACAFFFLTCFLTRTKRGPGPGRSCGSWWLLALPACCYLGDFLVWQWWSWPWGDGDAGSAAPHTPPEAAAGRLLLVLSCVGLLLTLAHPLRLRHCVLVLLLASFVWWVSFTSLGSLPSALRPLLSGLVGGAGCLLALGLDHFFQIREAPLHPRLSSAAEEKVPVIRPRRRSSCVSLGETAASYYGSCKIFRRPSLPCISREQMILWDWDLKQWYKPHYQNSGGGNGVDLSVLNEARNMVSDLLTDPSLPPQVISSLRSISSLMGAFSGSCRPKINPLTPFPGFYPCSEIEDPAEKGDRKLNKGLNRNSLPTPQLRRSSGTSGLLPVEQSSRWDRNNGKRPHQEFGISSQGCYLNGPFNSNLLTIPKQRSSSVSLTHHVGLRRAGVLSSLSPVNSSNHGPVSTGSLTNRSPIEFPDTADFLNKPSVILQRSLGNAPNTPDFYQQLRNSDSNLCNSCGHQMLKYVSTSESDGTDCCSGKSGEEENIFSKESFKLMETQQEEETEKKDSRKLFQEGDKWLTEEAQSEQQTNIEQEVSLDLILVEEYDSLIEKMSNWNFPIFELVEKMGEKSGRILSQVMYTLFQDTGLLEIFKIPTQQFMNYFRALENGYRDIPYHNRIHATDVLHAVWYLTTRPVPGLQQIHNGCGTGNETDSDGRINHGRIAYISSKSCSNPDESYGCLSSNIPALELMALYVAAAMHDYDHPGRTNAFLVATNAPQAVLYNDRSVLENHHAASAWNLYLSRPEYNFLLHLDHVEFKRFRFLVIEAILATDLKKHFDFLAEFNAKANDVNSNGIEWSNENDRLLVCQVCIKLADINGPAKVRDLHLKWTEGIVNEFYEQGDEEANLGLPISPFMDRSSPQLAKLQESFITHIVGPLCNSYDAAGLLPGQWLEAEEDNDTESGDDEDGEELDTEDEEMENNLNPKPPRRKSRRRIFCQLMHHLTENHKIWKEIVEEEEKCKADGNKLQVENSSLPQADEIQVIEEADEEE
Dual 3',5'-cyclic-AMP and -GMP phosphodiesterase 11A, sequence (Q9HCR9 whole entry): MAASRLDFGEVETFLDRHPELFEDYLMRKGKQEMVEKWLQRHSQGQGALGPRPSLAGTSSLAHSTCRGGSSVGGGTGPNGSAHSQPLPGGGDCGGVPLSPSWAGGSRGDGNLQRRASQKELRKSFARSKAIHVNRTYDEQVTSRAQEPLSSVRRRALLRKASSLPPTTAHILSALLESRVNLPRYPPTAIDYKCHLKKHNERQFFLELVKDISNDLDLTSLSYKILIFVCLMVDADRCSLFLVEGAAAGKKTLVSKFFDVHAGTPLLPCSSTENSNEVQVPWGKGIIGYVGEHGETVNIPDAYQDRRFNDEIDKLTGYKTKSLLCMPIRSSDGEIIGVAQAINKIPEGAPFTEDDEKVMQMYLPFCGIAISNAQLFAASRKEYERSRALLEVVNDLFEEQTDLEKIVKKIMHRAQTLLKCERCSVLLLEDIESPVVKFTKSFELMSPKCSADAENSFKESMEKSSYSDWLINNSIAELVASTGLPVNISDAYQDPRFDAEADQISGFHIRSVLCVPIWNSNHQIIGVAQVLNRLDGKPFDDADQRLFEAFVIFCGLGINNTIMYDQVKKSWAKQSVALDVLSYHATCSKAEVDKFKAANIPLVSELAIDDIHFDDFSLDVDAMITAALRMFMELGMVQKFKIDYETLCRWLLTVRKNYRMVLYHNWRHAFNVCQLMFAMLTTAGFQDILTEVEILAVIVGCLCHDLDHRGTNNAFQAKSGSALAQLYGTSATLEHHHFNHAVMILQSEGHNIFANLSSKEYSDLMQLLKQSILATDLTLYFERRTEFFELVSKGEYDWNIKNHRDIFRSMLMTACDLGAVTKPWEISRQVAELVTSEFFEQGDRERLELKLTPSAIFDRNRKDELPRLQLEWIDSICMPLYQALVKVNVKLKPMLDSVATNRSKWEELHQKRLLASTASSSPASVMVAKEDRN
High affinity cAMP-specific 3',5'-cyclic phosphodiesterase 7A, sequence (Q13946 whole entry): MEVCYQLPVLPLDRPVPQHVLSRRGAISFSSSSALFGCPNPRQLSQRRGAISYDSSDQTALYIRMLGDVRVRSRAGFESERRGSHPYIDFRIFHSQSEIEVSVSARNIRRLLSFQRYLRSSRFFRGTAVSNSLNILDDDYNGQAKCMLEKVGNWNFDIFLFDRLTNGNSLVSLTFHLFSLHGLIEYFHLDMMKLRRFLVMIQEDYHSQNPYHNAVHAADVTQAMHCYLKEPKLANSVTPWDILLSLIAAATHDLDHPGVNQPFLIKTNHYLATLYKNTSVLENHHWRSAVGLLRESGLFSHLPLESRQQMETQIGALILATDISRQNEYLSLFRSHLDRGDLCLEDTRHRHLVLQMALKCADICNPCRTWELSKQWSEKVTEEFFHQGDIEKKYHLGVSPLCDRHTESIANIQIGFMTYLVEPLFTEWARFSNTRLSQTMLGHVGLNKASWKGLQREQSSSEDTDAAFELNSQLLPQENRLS

SMILES | pIC50 [1] | pIC50 [2] | pIC50 [3] | pIC50 [4] | pIC50 [5] | pIC50 [6] | pIC50 [7]
Cc1ccccc1Nc1ncnc2c1c(-c1ccccc1)cn2-c1ccc(F)cc1 | < 4.00 | < 4.00 |  |  |  |  | 
CCN(CC)C(=O)c1cc(-c2cccs2)nc2c1c(C)nn2-c1ccccc1C [BC11-15] | < 4.00 | < 4.00 |  |  |  |  | 
CCCCSc1nc2c(c(=O)n1-c1ccccc1)SCC2 [BC11-38-1] | < 4.00 |  |  |  |  |  | 
CCC(C)Sc1nc2c(c(=O)n1-c1ccccc1)SCC2 (stereo not given) [BC11-38-2] | < 4.00 | < 4.00 | 4.29 | 4.74 |  |  | 
CCCSc1nc2c(c(=O)n1-c1ccc(C)cc1)SCC2 [BC11-38-3] | < 4.00 | < 4.00 |  |  | 5.12 | 4.67 | 
CCCSc1nc2c(c(=O)n1-c1ccccc1OC)SCC2 [BC11-38-4] | < 4.00 | < 4.00 |  |  | 5.00 |  | 5.24
CCCSc1nc2c(c(=O)n1-c1ccccc1)SCC2 [BC11-38] | < 4.00 | < 4.00 |  |  |  |  | 
COc1ccc2c(c1)sc1nc(=O)n(Cc3ccccc3)c(=O)n12 [US9173884, BC11-19-1] |  |  |  |  | 5.70 |  | 
